Test results taken from patent US8461328B2, “Tricyclic heterocyclic compounds, compositions and methods of use thereof” (Genentech, Inc., priority 2010, dated 2013).

Key:
Type in all cases: biochemical
JAK3 = target: T1, JAK3 (Homo sapiens, UniProt P52333); assay: JAK3 inhibition (Table 4); conditions: read-out: JAK3 Ki
T1 construct: made in house; host or cells: SF9 insect cells (baculovirus)

JAK1 = target: T2, JAK1 (Homo sapiens, UniProt P23458); assay: JAK1 inhibition (Table 4); conditions: read-out: JAK1 Ki
T2 construct: made in house; host or cells: SF9 insect cells (baculovirus)

JAK2 = target: T3, JAK2 (Homo sapiens, UniProt O60674); assay: JAK2 inhibition (Table 4); conditions: read-out: JAK2 Ki
T3 construct: made in house; host or cells: SF9 insect cells (baculovirus)

TYK2 = target: T4, TYK2 (Homo sapiens, UniProt P29597); assay: TYK2 inhibition (Table 4)
T4 construct: made in house; host or cells: SF9 insect cells (baculovirus)
T4 sequence (P29597 873-1187): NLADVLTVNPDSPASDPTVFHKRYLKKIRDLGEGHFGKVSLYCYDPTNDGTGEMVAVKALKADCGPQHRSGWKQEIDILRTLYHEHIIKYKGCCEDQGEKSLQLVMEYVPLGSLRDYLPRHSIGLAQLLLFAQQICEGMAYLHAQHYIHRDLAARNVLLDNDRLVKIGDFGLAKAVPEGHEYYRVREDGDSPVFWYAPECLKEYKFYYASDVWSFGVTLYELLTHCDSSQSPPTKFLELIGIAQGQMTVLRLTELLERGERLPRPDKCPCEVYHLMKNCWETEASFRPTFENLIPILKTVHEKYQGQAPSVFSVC

T2 sequence (P23458 852-1154): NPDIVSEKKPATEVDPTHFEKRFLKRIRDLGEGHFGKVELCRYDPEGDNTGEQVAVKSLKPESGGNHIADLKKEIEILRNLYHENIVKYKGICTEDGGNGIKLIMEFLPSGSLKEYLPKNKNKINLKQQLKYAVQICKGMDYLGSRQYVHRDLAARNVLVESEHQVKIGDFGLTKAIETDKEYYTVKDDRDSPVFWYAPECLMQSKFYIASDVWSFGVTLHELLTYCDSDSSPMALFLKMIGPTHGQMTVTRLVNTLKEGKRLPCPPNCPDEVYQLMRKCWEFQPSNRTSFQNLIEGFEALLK
T1 sequence (P52333 783-1124): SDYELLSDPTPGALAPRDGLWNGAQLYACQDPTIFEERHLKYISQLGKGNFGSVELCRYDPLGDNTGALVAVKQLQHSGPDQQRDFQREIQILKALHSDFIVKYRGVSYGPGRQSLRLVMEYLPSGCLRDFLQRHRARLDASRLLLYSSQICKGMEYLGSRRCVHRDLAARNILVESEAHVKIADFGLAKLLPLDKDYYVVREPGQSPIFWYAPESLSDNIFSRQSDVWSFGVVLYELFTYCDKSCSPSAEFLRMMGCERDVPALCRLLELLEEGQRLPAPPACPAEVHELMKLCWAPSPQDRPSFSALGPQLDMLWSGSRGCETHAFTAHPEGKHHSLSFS
T3 sequence (O60674 812-1132): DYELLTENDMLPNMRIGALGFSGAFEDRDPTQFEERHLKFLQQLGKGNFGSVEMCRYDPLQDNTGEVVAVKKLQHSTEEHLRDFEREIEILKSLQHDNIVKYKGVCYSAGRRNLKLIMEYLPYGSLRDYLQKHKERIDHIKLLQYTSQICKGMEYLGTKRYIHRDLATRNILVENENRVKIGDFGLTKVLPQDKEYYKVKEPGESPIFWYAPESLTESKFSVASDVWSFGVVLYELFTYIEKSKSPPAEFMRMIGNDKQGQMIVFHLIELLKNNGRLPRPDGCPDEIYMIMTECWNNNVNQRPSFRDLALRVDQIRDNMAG

Row | Compound | Ki (JAK3) | Ki (JAK1) | Ki (JAK2) | Ki (TYK2)
1 | Cc1nc2cnc3[nH]ccc3c2n1[C@H]1CC[C@H](NC(=O)N(C)C)CC1 [Example 604, Trans 1,1-dimethyl-3-[4-(2-methyl-6H-1,2,3,5,6-tetraaza-as-indacen-1-yl)-cyclohexyl]-urea] | 249 nM | 16.4 nM | 46 nM | 244 nM
2 | Cc1nc2cnc3[nH]ccc3c2n1C1CCC(NCC(F)(F)F)C1 (racemic) [Example 626, Racemic trans [3-(2-Methyl-6H-1,2,3,5,6-tetraaza-as-indacen-1-yl)-cyclopentyl]-(2,2,2-trifluoro-ethyl)-amine] | 33.7 nM | 2.04 nM | 6.4 nM | 9.38 nM
3 | COCCN(C)C(=O)NC1CCC(n2c(C)nc3cnc4[nH]ccc4c32)C1 (racemic) [Example 738, 1-(2-Methoxy-ethyl)-1-methyl-3-[3-(2-methyl-6H-1,3,5,6-tetraaza-as-indacen-1-yl)-cyclopentyl]-urea] | 80.9 nM | 11.6 nM | 49.1 nM | 351 nM
4 | N#CCCN1CCC(n2c(COCC3CC3)nc3cnc4[nH]ccc4c32)CC1 [Example 839, 3-[4-(2-Cyclopropylmethoxymethyl-6H-1,3,5,6-tetraaza-as-indacen-1-yl)-piperidin-1-yl]-propionitrile] | 73.5 nM | 61.7 nM | 106 nM | 595 nM
5 | Cc1nc(CN2CCC(n3c([C@@H](C)O)nc4cnc5[nH]ccc5c43)CC2)c[nH]1 [Example 902, (R)-1-{1-[1-(2-Methyl-1H-imidazol-4-ylmethyl)-piperidin-4-yl]-1,6-dihydro-1,3,5,6-tetraaza-as-indacen-2-yl}-ethanol] | 478 nM | 25.5 nM | 1230 nM | 2670 nM
6 | N#CCCN1CCC(n2c(CC(=O)N3CCCC3)nc3cnc4[nH]ccc4c32)CC1 [Example 270, 3-{4-[2-(2-Oxo-2-pyrrolidin-1-yl-ethyl)-6H-1,3,5,6-tetraaza-as-indacen-1-yl]-piperidin-1-yl}-propionitrile] | 15.1 nM | 36.1 nM | 121 nM | 352 nM
7 | Cc1nc2cnc3[nH]ccc3c2n1C1(C)CCN(CCC#N)CC1 [Example 581, 3-[4-Methyl-4-(2-methyl-6H-1,2,3,5,6-tetraaza-as-indacen-1-yl)-piperidin-1-yl]-propionitrile] | 280 nM | 26.8 nM | 114 nM | 275 nM
8 | Cc1nc2cnc3[nH]ccc3c2n1[C@@H]1CCCN(C(=O)CC#N)C1 [Example 272] | 3.14 nM | 0.5 nM | 1.35 nM | 4.71 nM
9 | N#CCCN1CCCCC(n2cnc3cnc4[nH]ccc4c32)C1 (racemic) [Example 989, 3-[3-(6H-1,3,5,6-Tetraaza-as-indacen-1-yl)-azepan-1-yl]-propionitrile] | 39.4 nM | 10.9 nM | 14.6 nM | 42 nM
10 | O=C1CCCN1CCc1nc2cnc3[nH]ccc3c2n1C1CCCCC1 [Example 801, 1-[2-(1-Cyclohexyl-1,6-dihydro-1,3,5,6-tetraaza-as-indacen-2-yl)-ethyl]-pyrrolidin-2-one] | 76.8 nM | 7.74 nM | 51.5 nM | 64.9 nM
11 | CC(C)(C)C(=O)NCCc1nc2cnc3[nH]ccc3c2n1C1CCN(CCC#N)CC1 [Example 374, N-(2-{l-[l-(2-Cyano-ethyl)-piperidin-4-yl]-1,6-dihydro-1,3,5,6-tetraaza-as-indacen-2-yl}-ethyl)-2,2-dimethyl-propionamide] | 100 nM | 4.69 nM | 89.4 nM | 350 nM
12 | c1ccc(CN2CCC[C@@H](n3nnc4cnc5[nH]ccc5c43)C2)cc1 [Example 18, 1-((R)-1-Benzyl-piperidin-3-yl)-1,6-dihydro-1,2,3,5,6-pentaaza-as-indacene] | 323 nM | 24.6 nM | 40.1 nM | 273 nM
13 | CC(c1ccccc1)N1CCC(n2cnc3cnc4[nH]ccc4c32)CC1 (centres unmarked) [Example 51, 1-[1-(1-Phenyl-ethyl)-piperidin-4-yl]-1,6-dihydro-1,3,5,6-tetraaza-as-indacene] | 137 nM | 7.68 nM | 6.69 nM | 76.6 nM

Continued by falling Ki (JAK3), values first:

Row | Ki (JAK3) | Ki (JAK1) | Ki (JAK2) | Ki (TYK2) | Compound
14 | 798 nM | 43.1 nM | 375 nM | 974 nM | COCCNC1CCC(n2c(C)nc3cnc4[nH]ccc4c32)C1 (racemic) [Example 628, Racemic trans (2-methoxy-ethyl)-[3-(2-methyl-6H-1,2,3,5,6-tetraaza-as-indacen-1-yl)-cyclopentyl]-amine]
15 | 491 nM | 33 nM | 276 nM | 302 nM | CC(=O)N1CCC(N[C@H]2CC[C@H](n3cnc4cnc5[nH]ccc5c43)CC2)CC1 [Example 555, trans 1-{4-[4-(6H-1,3,5,6-Tetraaza-as-indacen-1-yl)-cyclohexylamino]-piperidin-1-yl}-ethanone]
16 | 282 nM | 34 nM | 59.9 nM | 127 nM | c1cc2c(ncc3nnn(C4CCCOC4)c32)[nH]1 (single isomer, unassigned) [Example 459, 1-(Tetrahydro-pyran-3-yl)-1,6-dihydro-1,2,3,5,6-pentaaza-as-indacene]
17 | 139 nM | 29.2 nM | 42.2 nM | 141 nM | CC(=O)N1CCC[C@@H](n2cnc3cnc4[nH]ccc4c32)C1 [Example 30, 1-[(R)-3-(6H-1,3,5,6-Tetraaza-as-indacen-1-yl)-piperidin-1-yl]ethanone]
18 | 96.5 nM | 17.7 nM | 73 nM | 245 nM | CC(CC#N)N1CCC(n2c(C3CC(=O)N(C)C3)nc3cnc4[nH]ccc4c32)CC1 (racemic) [Example 395, 3-{4-[2-(1-Methyl-5-oxo-pyrrolidin-3-yl)-6H-1,3,5,6-tetraaza-as-indacen-1-yl]-piperidin-1-yl}-butyronitrile]
19 | 89.3 nM | 4.61 nM | 15.8 nM | 244 nM | CC(C)CC(=O)NC1CCC(n2nnc3cnc4[nH]ccc4c32)CC1 (centres unmarked) [Example 883, 3-Methyl-N-[4-(6H-1,2,3,5,6-pentaaza-as-indacen-1-yl)-cyclohexyl]-butyramide]
20 | 66.9 nM | 6.41 nM | 25.6 nM | 74.4 nM | Cc1nc2cnc3[nH]ccc3c2n1C1CCN(CC(O)CO)CC1 (centres unmarked) [Example 698, 3-[4-(2-Methyl-6H-1,2,3,5,6-tetraaza-as-indacen-1-yl)-piperidin-1-yl]-propane-1,2-diol]
21 | 60.7 nM | 5.89 nM | 8.53 nM | 19 nM | O=C(C1CC1)N1CCC[C@@H](n2cnc3cnc4[nH]ccc4c32)C1 [Example 75, Cyclopropyl-[(R)-3-(6H-1,3,5,6-tetraaza-as-indacen-1-yl)-piperidin-1-yl]methanone]
22 | 57 nM | 2.73 nM | 52.4 nM | 5.59 nM | C[C@@H](O)c1nc2cnc3[nH]ccc3c2n1[C@@H]1CCC[C@@H](O)C1 [Example 689, (1R,3R)-3-[2-((R)-1-Hydroxy-ethyl)-6H-1,2,3,5,6-tetraaza-as-indacen-1-yl]-cyclohexanol]
23 | 32.5 nM | 22.1 nM | 49.5 nM | 211 nM | Cc1nc2cnc3[nH]ccc3c2n1[C@@H]1CC[C@@H](NC(C)CC#N)C1 (stereo partly drawn) [Example 725, 3-[(1R,3R)-3-(2-Methyl-6H-1,3,5,6-tetraaza-as-indacen-1-yl)-cyclopentylamino]-butyronitrile]
24 | 28.1 nM | 11.2 nM | 10 nM | 607 nM | N#Cc1nc2cnc3[nH]ccc3c2n1C1CCN(Cc2ccccc2)CC1 [Example 163, 1-(1-Benzyl-piperidin-4-yl)-1,6-dihydro-1,2,3,5,6-tetraaza-as-indacene-2-carbonitrile]
25 | 19.1 nM | 55.3 nM | 152 nM | 401 nM | CN(C(=O)Cc1nc2cnc3[nH]ccc3c2n1C1CCN(CCC#N)CC1)C1CCCC1 [Example 263, 2-{1-[1-(2-Cyano-ethyl)-piperidin-4-yl]-1,6-dihydro-1,3,5,6-tetraaza-as-indacen-2-yl}-N-cyclopentyl-N-methyl-acetamide]
26 | 11.3 nM | 0.8 nM | 4.49 nM | 3.52 nM | N#CCCC1CCC(n2c(C(O)CO)nc3cnc4[nH]ccc4c32)CC1 (centres unmarked) [Example 1006, 3-{4-[2-(1,2-Dihydroxy-ethyl)-6H-1,3,5,6-tetraaza-as-indacen-1-yl]-cyclohexyl}-propionitrile]
27 | 10.5 nM | 1.13 nM | 7.11 nM | 1.87 nM | (1-Cyclohexyl-1,6-dihydro-1,2,3,5,6-tetraaza-as-indacen-2-yl)-methanol-d11 [Example 674]
28 | 9.98 nM | 6.22 nM | 62.7 nM | 616 nM | O=C(Cc1nc2cnc3[nH]ccc3c2n1C1CCN(Cc2ccccc2)CC1)N1CCOCC1 [Example 23, 2-[1-(1-Benzyl-piperidin-4-yl)-1,6-dihydro-1,2,3,5,6-tetraaza-as-indacen-2-yl]-1-morpholin-4-yl-ethanone]
29 | 8.46 nM | 2.6 nM | 1.82 nM | 26.1 nM | CC1CC(n2cnc3cnc4[nH]ccc4c32)CCN1Cc1ccccc1 (racemic) [Example 127, 1-(1-Benzyl-2-methyl-piperidin-4-yl)-1,6-dihydro-1,2,3,5,6-tetraaza-as-indacene]
